Experimental data reported in publication PMC4313523, “Decolorization of Anthraquinonic Dyes from Textile Effluent Using Horseradish Peroxidase: Optimization and Kinetic Study” (The Scientific World Journal, 2015).
Read-outs that look alike come from different tables or passages of the source.

What was measured:
[1] = system: T1, horseradish peroxidase (HRP); assay: dye decolorization initial rates, fit to ping-pong bi-bi model with H2O2 inhibition (best fit); assay type: biochemical; details: read-out: Hydrogen peroxide inhibition
T1 construct: gene PRXC1A; commercial enzyme from Sigma-Aldrich, 250 purpurogallin units per mg

[2] = system: T1, horseradish peroxidase (HRP); assay: dye decolorization initial rates, fit to ping-pong bi-bi model with dye inhibition; assay type: biochemical; details: substrate inhibition (dead-end complex)
Source text: dye decolorization initial rates, fit to ping-pong bi-bi model with dye inhibition on horseradish peroxidase (HRP)

Compound	Km ([1]; co-substrate H2O2 varied at dye 0.018 mM, pH 5.25, 24 °C, 0.15 IU/mL HRP, R2 0.9902) [µM]	Dye inhibition ([2]; H2O2 fixed at 0.06 mM, dye 0.012-0.043 mM, pH 5.25, 24 °C, 0.15 IU/mL HRP, R2 0.9225) [mM]	Km ([1]; co-substrate H2O2 varied at dye 0.029 mM, pH 5.5, 24 °C, 0.04 IU/mL HRP, R2 0.9908) [µM]	Dye inhibition ([2]; H2O2 fixed at 0.1 mM, dye 0.015-0.051 mM, pH 5.5, 24 °C, 0.04 IU/mL HRP, R2 0.9602) [mM]
C.I. Acid Violet 109 [AV 109]	330	0.0080		
Cc1cc(C)c(Nc2cc(S(=O)(=O)O)c(N)c3c2C(=O)c2ccccc2C3=O)c(C)c1NC(=O)C(Br)=CBr [AB 225, C.I. Acid Blue 225]			152	0.0126
